According to patent US20220298186A1, “BIARYL DIALKYL PHOSPHINE OXIDE FPR2 AGONISTS” (BRISTOL-MYERS SQUIBB COMPANY, priority 2019, published 2022):

Experiments:
[1] = target: T1, human FPR2 receptors (Homo sapiens, UniProt P25090); test: FPR2 cyclic adenosine monophosphate (cAMP) assay; type: cell-based; details: CHO cells overexpressing human FPR2; forskolin 5 μM, IBMX 200 μM; 30 min at rt; inhibition of cAMP production (HTRF); read-out: hFPR2 cAMP2 EC50
T1 sequence (P25090 1-351): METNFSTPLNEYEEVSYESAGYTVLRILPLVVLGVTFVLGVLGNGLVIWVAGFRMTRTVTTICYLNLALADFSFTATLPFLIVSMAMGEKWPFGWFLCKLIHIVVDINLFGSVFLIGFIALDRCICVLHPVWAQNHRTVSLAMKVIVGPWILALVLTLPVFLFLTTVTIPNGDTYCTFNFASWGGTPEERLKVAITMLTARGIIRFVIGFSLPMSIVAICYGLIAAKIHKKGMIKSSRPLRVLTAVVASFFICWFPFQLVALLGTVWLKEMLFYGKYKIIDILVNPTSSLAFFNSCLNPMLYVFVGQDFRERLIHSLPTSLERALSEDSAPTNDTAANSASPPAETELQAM
Excerpt: (§1) N-formyl peptide receptors (FPRs) are a family of chemo attractant receptors that facilitate leukocyte response during inflammation. FPRs belong to the seven-transmembrane G protein-coupled receptor superfamily and are linked to inhibitory G-proteins (Gi). Three family members (FPR1, FPR2 and FPR3) have been identified in humans and are predominantly found in myeloid cells with varied distribution and have also been reported in multiple organs and tissues. After agonist binding, the FPRs activate a multitude of physiological pathways, such as intra cellular signaling transduction, Ca^2+ mobilization and transcription. The family interacts with a diverse set of ligands that includes proteins, polypeptides and fatty acid metabolites which activate both pro-inflammatory and pro-resolution downstream responses. FPR2 and FPR1 Cyclic Adenosine Monophosphate (cAMP) Assays were used to measure the activity of the compounds in this patent.
(§2) FPR2 and FPR1 Cyclic Adenosine Monophosphate (cAMP) Assays. A mixture of forskolin (5 μM final for FPR2 or 10 μM final for FPR1) and IBMX (200 μM final) were added to 384-well Proxiplates (Perkin-Elmer) pre-dotted with test compounds in DMSO (1% final) at final concentrations in the range of 0.020 nM to 100 μM. Chinese Hamster Ovary cells (CHO) overexpressing human FPR1 or human FPR2 receptors were cultured in F-12 (Ham's) medium supplemented with 10% qualified FBS, 250 μg/mL zeocin and 300 μg/mL hygromycin (Life Technologies). Reactions were initiated by adding 2,000 human FPR2 cells per well or 4,000 human FPR1 cells per well in Dulbecco's PBS (with calcium and magnesium) (Life Technologies) supplemented with 0.1% BSA (Perkin-Elmer). The reaction mixtures were incubated for 30 min at rt. The level of intracellular cAMP was determined using the HTRF HiRange cAMP assay reagent kit (Cisbio) according to manufacturer's instruction. Solutions of cryptate conjugated anti-cAMP and d2 flurorophore-labelled cAMP were made in a supplied lysis buffer separately. Upon completion of the reaction, the cells were lysed with equal volume of the d2-cAMP solution and anti-cAMP solution. After a 1-h rt incubation, time-resolved fluorescence intensity was measured using the Envision (Perkin-Elmer) at 400 nm excitation and dual emission at 590 nm and 665 nm. A calibration curve was constructed with an external cAMP standard at concentrations ranging from 1 μM to 0.1 μM by plotting the fluorescent intensity ratio from 665 nm emission to the intensity from the 590 nm emission against cAMP concentrations. The potency and activity of a compound to inhibit cAMP production was then determined by fitting to a 4-parametric logistic equation from a plot of cAMP level versus compound concentrations.
(§3) The examples disclosed below were tested in the FPR2 and FPR1 cAMP assay described above and found having FPR2 and/or FPR1 agonist activity. Table 1 below lists EC50 values in the FPR2 and FPR1 cAMP assays measured for the following examples.

[2] = target: T2, human FPR1 receptors (Homo sapiens, UniProt P21462); test: FPR1 cyclic adenosine monophosphate (cAMP) assay; type: cell-based; details: CHO cells overexpressing human FPR1; forskolin 10 μM, IBMX 200 μM; 30 min at rt; inhibition of cAMP production (HTRF); read-out: hFPR1 cAMP EC50
T2 sequence (P21462 1-350): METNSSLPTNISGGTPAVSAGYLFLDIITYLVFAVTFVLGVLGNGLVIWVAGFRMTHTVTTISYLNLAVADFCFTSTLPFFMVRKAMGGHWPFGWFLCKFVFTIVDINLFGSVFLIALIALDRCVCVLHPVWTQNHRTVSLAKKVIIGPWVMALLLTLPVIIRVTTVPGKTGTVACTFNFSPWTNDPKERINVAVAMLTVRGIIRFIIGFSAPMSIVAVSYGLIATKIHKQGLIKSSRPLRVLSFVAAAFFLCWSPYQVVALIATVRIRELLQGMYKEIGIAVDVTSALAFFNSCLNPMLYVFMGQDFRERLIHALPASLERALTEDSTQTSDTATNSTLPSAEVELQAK
Excerpt: as §1, §2, §3

Row | Compound | EC50 [1] | EC50 [2]
1 | CCP(=O)(CC)c1ccccc1-c1cc(F)c(N2CCC[C@@H](NC(=O)Nc3ccc(Cl)cc3F)C2=O)c(F)c1 [Example 3, 1-(4-Chloro-2-fluorophenyl)-3-[(3R)-1-[2′-(diethylphosphoryl)-3,5-difluoro-[1,1′-biphenyl]-4-yl]-2-oxopiperidin-3-yl]urea] | 0.00017 µM | 0.42 µM
2 | COc1ccc(NC(=O)N[C@@H]2CCCN(c3c(F)cc(-c4ccccc4P(C)(C)=O)cc3F)C2=O)cc1 [Example 13, 3-[(3R)-1-[2′-(Dimethylphosphoryl)-3,5-difluoro-[1,1′-biphenyl]-4-yl]-2-oxopiperidin-3-yl]-1-(4-methoxyphenyl)urea] | 0.0056 µM | 2.4 µM
